According to PMC5217682, “Galactomannan Catabolism Conferred by a Polysaccharide Utilization Locus of Bacteroides ovatus” (The Journal of Biological Chemistry, 2016):

Target: T1, BoMan26B (Bacteroides ovatus, UniProt A0ABU3IS29)
T1 construct: gene RO706_12620; residues 1-19 (lipoprotein signal) deleted; His tag kept; expressed in E. coli BL21(DE3); 347 residues, 39,870 Da with tag
T1 sequence (A0ABU3IS29 20-360): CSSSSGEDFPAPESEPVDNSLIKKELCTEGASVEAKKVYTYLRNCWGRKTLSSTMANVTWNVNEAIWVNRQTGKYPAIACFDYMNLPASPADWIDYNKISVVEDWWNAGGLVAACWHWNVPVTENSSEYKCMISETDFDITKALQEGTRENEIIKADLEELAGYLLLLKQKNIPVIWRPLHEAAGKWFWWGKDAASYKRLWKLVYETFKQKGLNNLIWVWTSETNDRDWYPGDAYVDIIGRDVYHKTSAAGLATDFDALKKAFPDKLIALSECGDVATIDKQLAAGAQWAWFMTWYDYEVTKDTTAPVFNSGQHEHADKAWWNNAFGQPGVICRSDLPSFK
Test: hydrolysis by HPAEC-PAD
Assay type: biochemical
Details: […] substrate, […] potassium phosphate pH […] °C

For `OC[C@H]1O[C@@H](O[C@H]2[C@H](O)[C@H](O)[C@H](O[C@H]3[C@H](O)[C@H](O)[C@H](O[C@H]4[C@H](O)[C@H](O)[C@H](O[C@H]5[C@H](O)[C@H](O)C(O)O[C@@H]5CO)O[C@@H]4CO)O[C@@H]3CO)O[C@@H]2CO)[C@@H](O)[C@@H](O)[C@@H]1O` (stereo partly shown) [M5, mannopentaose], the “hydrolysis by HPAEC-PAD” value was “it hydrolyzed all tested manno oligo- and polysaccharides (M3–M6”.
